The target in this assay is Neuronal acetylcholine receptor; alpha4/beta2 (Rattus norvegicus, UniProt P09483+P12390). Description: Nicotinic acetylcholine receptor binding activity was determined by ability to displace [3H]- (-) cytisine binding from whole rat brain synaptic membranes.

This note sets out measurements from ChEMBL document CHEMBL1131987, “Structure-activity studies on a novel series of cholinergic channel activators based on a heteroaryl ether framework” (Bioorg Med Chem Lett, 1999).

pKi: −log10 of the molar value. Some results are limits rather than exact numbers.

Sequence of Neuronal acetylcholine receptor; alpha4/beta2 (P09483 whole entry): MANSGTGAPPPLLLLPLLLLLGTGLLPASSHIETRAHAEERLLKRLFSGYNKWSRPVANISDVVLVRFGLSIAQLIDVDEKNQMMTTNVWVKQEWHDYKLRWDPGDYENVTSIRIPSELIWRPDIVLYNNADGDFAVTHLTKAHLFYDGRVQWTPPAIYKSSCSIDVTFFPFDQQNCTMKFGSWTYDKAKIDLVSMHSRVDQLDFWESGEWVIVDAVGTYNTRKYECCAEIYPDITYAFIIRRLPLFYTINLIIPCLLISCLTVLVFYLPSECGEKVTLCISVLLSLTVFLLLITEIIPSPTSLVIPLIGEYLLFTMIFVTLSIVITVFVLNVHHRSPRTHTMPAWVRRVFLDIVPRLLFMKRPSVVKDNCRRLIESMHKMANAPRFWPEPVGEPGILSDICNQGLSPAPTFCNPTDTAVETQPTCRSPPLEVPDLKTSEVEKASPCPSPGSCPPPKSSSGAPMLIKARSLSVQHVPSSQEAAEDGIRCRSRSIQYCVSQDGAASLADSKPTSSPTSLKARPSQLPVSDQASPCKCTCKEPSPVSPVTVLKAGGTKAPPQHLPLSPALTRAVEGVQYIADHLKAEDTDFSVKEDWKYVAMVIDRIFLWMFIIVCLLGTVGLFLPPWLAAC
Sequence of Neuronal acetylcholine receptor; alpha4/beta2 (P12390 whole entry): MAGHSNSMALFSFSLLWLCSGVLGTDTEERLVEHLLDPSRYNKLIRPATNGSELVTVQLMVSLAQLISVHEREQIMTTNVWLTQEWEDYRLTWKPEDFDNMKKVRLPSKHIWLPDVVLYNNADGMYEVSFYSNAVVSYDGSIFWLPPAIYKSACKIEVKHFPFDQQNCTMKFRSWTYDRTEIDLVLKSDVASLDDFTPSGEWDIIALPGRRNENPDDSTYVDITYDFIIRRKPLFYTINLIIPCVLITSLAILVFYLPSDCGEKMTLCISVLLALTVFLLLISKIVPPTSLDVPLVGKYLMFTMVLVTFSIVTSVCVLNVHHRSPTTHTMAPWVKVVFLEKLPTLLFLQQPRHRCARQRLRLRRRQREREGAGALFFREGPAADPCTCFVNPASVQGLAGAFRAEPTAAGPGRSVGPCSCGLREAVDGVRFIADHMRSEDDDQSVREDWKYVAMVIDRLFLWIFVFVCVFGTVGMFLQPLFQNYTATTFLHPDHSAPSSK

By pKi is commonly meant the Ki on a negative log10 scale, so that one unit is a factor of ten. Low readings indicate a high Ki, high ones a low Ki. `CN1CCC(Oc2ccc(Cl)nn2)C1` (configuration not stated) gave a pKi of 7.33.
The same measure for `c1cncc(OCCN2CCCC2)c1`: 6.62; for `CN1CCC[C@H]1COc1cnccn1`: 7.79; for `c1ncc(OC[C@@H]2CCN2)cn1`: 9.89.
The same measure for `CN1CC[C@@H](Oc2cccnc2)C1`: 8.35; for `CN1CCC(OCc2cccnc2)C1` (configuration not stated): 4.92; for `CN1CCC[C@@H]1COc1ccc(Cl)nn1`: 7.07.
The same measure for `CN1CC[C@H](Oc2cccnc2)C1`: 8.57; for `CN1CCC(Oc2ccccn2)C1` (configuration not stated): under 5.00.
For `CN1CCC(Oc2cnccn2)C1` (configuration not stated), the pKi was 6.44.
With `Clc1ccc(OC[C@@H]2CCN2)nn1` the figure was 7.81.
The same measure for `Clc1ccc(OCCN2CCCC2)nn1`: 5.89; for `CN1CC[C@H]1COc1ccc(Cl)nn1`: 7.20; for `CN1CCC[C@H]1COc1cccnn1`: 7.38.
As for `c1ccc(OCCN2CCCC2)nc1`, the negative logarithm of the Ki (pKi) is 6.80.
The same measure for `CN1CCC[C@H]1COc1ccc(Cl)nn1`: 7.54; for `CN1CCC[C@H]1COc1ncccn1`: 5.91.
The same measure for `CN1CCC[C@@H]1COc1cnccn1`: 6.39; for `CN1CC[C@H]1COc1cncnc1`: 8.18.
With `c1cnc(OCCN2CCCC2)cn1` the figure was 6.25.
As to `CN1CC[C@H]1COc1cccnn1`, the negative logarithm of the Ki (pKi) was 7.55.
With `CN1CCC[C@H]1COc1ccccn1` the figure was 6.31.
